# In ChEMBL document CHEMBL5584339, “Design, Synthesis, and Evaluation of the Antitubercular Activity of 5-Phenyl Substituted-5, 6-dihydropyrido[2, 3-d]pyrimidine-4, 7(3H, 8H)-dione Compounds” (J Med Chem, 2024):
# pIC50: −log10 of the molar value. Active and inactive are the calls of the source. The calls are words filed in the database; no cut-off is given here.
# Legend:
# [1] = Cytotoxicity against african green monkey Vero cells incubated for 48 hrs by CCK8 assay; type: toxicity, cell-based, Chlorocebus sabaeus
# [2] = system: Mycobacterium tuberculosis; assay: Antitubercular activity against Mycobacterium tuberculosis H37Rv incubated for 7 days by alamar blue assay; type: functional; conditions: 168 h, time 7 day
# [3] = Cytotoxicity against HK-2 cells incubated for 48 hrs by CCK8 assay; type: toxicity, cell-based; conditions: human
# [4] = Selectivity index, ratio of IC50 for african green monkey Vero cells to IC50 for Mycobacterium tuberculosis H37Rv; type: toxicity; conditions: read-out: Ratio IC50
# [5] = Metabolic stability in human liver microsomes assessed as substrate remaining at 2 uM preincubated for 60 mins followed by NADPH addition and measured upto 60 mins by LC-MS analysis; type: ADME, Microsome; conditions: time < 120 min, read-out: Stability
# [6] = Metabolic stability in human liver microsomes assessed as intrinsic clearance per mg protein at 2 uM preincubated for 60 mins followed by NADPH addition and measured upto 60 mins by LC-MS analysis; type: ADME, Microsome; conditions: time < 120 min, read-out: CLH
# [7] = Metabolic stability in human liver microsomes assessed as half-life at 2 uM preincubated for 60 mins followed by NADPH addition and measured upto 60 mins by LC-MS analysis; type: ADME, Microsome; conditions: time < 120 min
# [8] = Metabolic stability in mouse liver microsomes assessed as substrate remaining at 2 uM preincubated for 60 mins followed by NADPH addition and measured upto 60 mins by LC-MS analysis; type: ADME, Microsome; conditions: time < 120 min, read-out: Stability
# [9] = Metabolic stability in mouse liver microsomes assessed as half-life at 2 uM preincubated for 60 mins followed by NADPH addition and measured upto 60 mins by LC-MS analysis; type: ADME, Microsome; conditions: time < 120 min
# [10] = Metabolic stability in mouse liver microsomes assessed as intrinsic clearance per mg protein at 2 uM preincubated for 60 mins followed by NADPH addition and measured upto 60 mins by LC-MS analysis; type: ADME, Microsome; conditions: time < 120 min, read-out: CLH
# [11] = system: Mycobacterium marinum; assay: Antitubercular activity against Mycobacterium marinum infected in adult zebrafish assessed as reduction in bacterial count by measuring CFU at 100 uM measured over 10 days; type: functional; conditions: time 10 day
# [12] = system: Mycobacterium marinum; assay: Antitubercular activity against Mycobacterium marinum infected in adult zebrafish assessed as reduction in bacterial count by measuring CFU at 400 uM measured over 10 days; type: functional; conditions: time 10 day
# [13] = system: Mycobacterium tuberculosis; assay: Binding affinity to Mycobacterium tuberculosis AccD5 at 10 uM by SPR analysis
# [14] = AUClast in BALB/c mouse at 5 mg/kg, iv measured upto 24 hrs by LC-MS/MS analysis; type: ADME, organism-based; conditions: in vivo
# [15] = Oral bioavailability in BALB/c mouse at 30 mg/kg measured upto 24 hrs by LC-MS/MS analysis; type: ADME, organism-based; conditions: in vivo
# [16] = Half-life in BALB/c mouse at 30 mg/kg, po measured upto 24 hrs by LC-MS/MS analysis; type: ADME, organism-based; conditions: in vivo
# [17] = system: Mycobacterium marinum; assay: Antitubercular activity against Mycobacterium marinum infected in adult zebrafish assessed as reduction in bacterial count by measuring CFU at 50 uM measured over 10 days; type: functional; conditions: time 10 day
# [18] = Tmax in BALB/c mouse at 30 mg/kg, po measured upto 24 hrs by LC-MS/MS analysis; type: ADME, organism-based; conditions: in vivo
# [19] = system: Mycobacterium marinum; assay: Antitubercular activity against Mycobacterium […] assessed as bactericidal effect by measuring colony forming unit at 100 uM measured over 10 days; type: functional; conditions: time 10 day
# [20] = Initial plasma concentration in BALB/c mouse at 5 mg/kg, iv measured upto 24 hrs by LC-MS/MS analysis; type: ADME, organism-based
# [21] = Stability in mouse plasma by MS analysis; type: ADME, cell-free
# [22] = AUCinfinity in BALB/c mouse at 30 mg/kg, po measured upto 24 hrs by LC-MS/MS analysis; type: ADME, organism-based; conditions: in vivo
# [23] = Observed extrapolated AUC in BALB/c mouse at 30 mg/kg, po measured upto 24 hrs by LC-MS/MS analysis; type: ADME, organism-based; conditions: in vivo
# [24] = AUClast in BALB/c mouse at 30 mg/kg, po measured upto 24 hrs by LC-MS/MS analysis; type: ADME, organism-based; conditions: in vivo
# [25] = Observed mean residence time infinity in BALB/c mouse at 30 mg/kg, po measured upto 24 hrs by LC-MS/MS analysis; type: ADME, organism-based; conditions: in vivo
# [26] = Observed mean residence time infinity in BALB/c mouse at 5 mg/kg, iv measured upto 24 hrs by LC-MS/MS analysis; type: ADME, organism-based; conditions: in vivo
# [27] = Cmax in BALB/c mouse at 30 mg/kg, po measured upto 24 hrs by LC-MS/MS analysis; type: ADME, organism-based; conditions: in vivo
# [28] = Half-life in BALB/c mouse at 5 mg/kg, iv measured upto 24 hrs by LC-MS/MS analysis; type: ADME, organism-based; conditions: in vivo
# [29] = Dose normalized AUClast in BALB/c mouse at 30 mg/kg, po measured upto 24 hrs by LC-MS/MS analysis; type: ADME, organism-based; conditions: in vivo
# [30] = system: Mycobacterium marinum; assay: Antitubercular activity against Mycobacterium marinum infected in adult zebrafish assessed as reduction in bacterial count by measuring CFU at 200 uM measured over 10 days; type: functional; conditions: time 10 day
# [31] = AUCinfinity in BALB/c mouse at 5 mg/kg, iv measured upto 24 hrs by LC-MS/MS analysis; type: ADME, organism-based; conditions: in vivo
# [32] = Dose normalized AUClast in BALB/c mouse at 5 mg/kg, iv measured upto 24 hrs by LC-MS/MS analysis; type: ADME, organism-based; conditions: in vivo
# [33] = system: Mycobacterium marinum; assay: Antitubercular activity against Mycobacterium […] assessed as bactericidal effect by measuring colony forming unit at 200 uM measured over 10 days; type: functional; conditions: time 10 day
# [34] = Observed clearance in BALB/c mouse at 5 mg/kg, iv measured upto 24 hrs by LC-MS/MS analysis; type: ADME, organism-based; conditions: in vivo
# [35] = molecular target: Voltage-gated inwardly rectifying potassium channel KCNH2 (Homo sapiens, UniProt Q12809); assay: Inhibition of human ERG expressed in HEK293 cells by whole cell manual patch clamp method; type: toxicity, cell-based
# Chain of Voltage-gated inwardly rectifying potassium channel KCNH2 (Q12809 whole entry): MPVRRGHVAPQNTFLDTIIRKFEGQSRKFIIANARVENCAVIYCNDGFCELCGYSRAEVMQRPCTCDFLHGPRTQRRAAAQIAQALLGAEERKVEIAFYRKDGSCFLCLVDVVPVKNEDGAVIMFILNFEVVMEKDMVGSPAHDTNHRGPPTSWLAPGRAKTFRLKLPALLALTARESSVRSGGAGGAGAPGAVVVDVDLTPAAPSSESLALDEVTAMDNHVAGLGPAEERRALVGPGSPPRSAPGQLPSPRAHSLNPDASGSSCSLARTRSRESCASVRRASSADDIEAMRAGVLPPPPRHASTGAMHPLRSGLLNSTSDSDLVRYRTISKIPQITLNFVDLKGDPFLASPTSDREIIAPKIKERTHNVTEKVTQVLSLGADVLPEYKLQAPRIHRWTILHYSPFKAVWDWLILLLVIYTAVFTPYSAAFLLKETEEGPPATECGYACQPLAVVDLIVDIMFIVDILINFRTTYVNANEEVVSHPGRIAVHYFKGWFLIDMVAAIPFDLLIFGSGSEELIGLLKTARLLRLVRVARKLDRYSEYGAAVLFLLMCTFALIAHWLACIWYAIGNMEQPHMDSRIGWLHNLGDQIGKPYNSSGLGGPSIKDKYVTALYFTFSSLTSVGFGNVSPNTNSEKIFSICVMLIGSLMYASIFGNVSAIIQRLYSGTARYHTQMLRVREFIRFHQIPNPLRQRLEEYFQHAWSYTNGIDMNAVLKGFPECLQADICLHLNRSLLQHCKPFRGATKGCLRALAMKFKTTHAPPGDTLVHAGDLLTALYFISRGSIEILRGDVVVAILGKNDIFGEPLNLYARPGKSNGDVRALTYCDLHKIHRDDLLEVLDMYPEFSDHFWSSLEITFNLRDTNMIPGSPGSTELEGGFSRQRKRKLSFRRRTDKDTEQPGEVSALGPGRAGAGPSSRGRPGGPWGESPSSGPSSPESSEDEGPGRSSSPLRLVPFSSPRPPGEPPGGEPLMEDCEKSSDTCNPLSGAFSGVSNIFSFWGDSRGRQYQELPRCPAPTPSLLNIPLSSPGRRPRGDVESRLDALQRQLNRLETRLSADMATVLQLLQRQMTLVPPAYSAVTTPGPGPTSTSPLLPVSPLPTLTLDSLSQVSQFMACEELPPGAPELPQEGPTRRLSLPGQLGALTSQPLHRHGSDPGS
# [36] = Observed volume of distribution at steady state in BALB/c mouse at 5 mg/kg, iv measured upto 24 hrs by LC-MS/MS analysis; type: ADME, organism-based; conditions: in vivo, read-out: Vdss
# [37] = system: Mycobacterium marinum; assay: Antitubercular activity against Mycobacterium marinum infected in zebrafish larvae assessed as increase survival rate at 12.5 to 200 uM measured over 10 days by qPCR analysis; type: functional, organism-based; conditions: dose 12.5-200 µM, time 10.0 day
# [38] = Observed extrapolated AUC in BALB/c mouse at 5 mg/kg, iv measured upto 24 hrs by LC-MS/MS analysis; type: ADME, organism-based; conditions: in vivo
compound,measurement,setting,value
CCCSc1nc2c(c(=O)[nH]1)[C@H](c1ccc(OC)cc1)CC(=O)N2,IC50 at 48 h,[1],> 64 µg/mL
same,MIC,[2],7.83 µg/mL
same,IC50 at 48 h,[3],73.1 µg/mL
CCCSc1nc2c(c(=O)[nH]1)C(c1ccc(OC)cc1[N+](=O)[O-])CC(=O)N2 (racemic),selectivity ratio,[4],> 833
same,"remaining at 1 h, 2 µM",[5],73.7%
same,IC50 at 48 h,[1],> 100 µg/mL
same,microsomal CLint at 2 µM,[6],11.2 µL/min/mg
same,MIC,[2],0.12 µg/mL
same,IC50 at 48 h,[3],> 100 µg/mL
same,half-life at 2 µM,[7],124 min
same,"remaining at 1 h, 2 µM",[8],66.8%
same,half-life at 2 µM,[9],97.3 min
same,microsomal CLint at 2 µM,[10],14.2 µL/min/mg
CO[C@H]1/C=C/O[C@@]2(C)Oc3c(C)c(O)c4c(O)c(c(/C=N/N5CCN(C)CC5)c(O)c4c3C2=O)NC(=O)/C(C)=C\C=C\[C@H](C)[C@H](O)[C@@H](C)[C@@H](O)[C@@H](C)[C@H](OC(C)=O)[C@@H]1C [RIFAMPIN],selectivity ratio,[4],> 5000
same,Activity,[11],4 10^4CFU
same,IC50 at 48 h,[1],> 100 µg/mL
same,MIC,[2],0.02 µg/mL
same,Activity,[12],1.5 10^2CFU
CCCSc1nc2c(c(=O)[nH]1)C(c1ccc(OC)cc1)CC(=O)N2 (racemic),selectivity ratio,[4],93
same,"remaining at 1 h, 2 µM",[5],83.4%
same,IC50 at 48 h,[1],14.5 µg/mL
same,microsomal CLint at 2 µM,[6],5.85 µL/min/mg
same,MIC,[2],0.16 µg/mL
same,IC50 at 48 h,[3],24.8 µg/mL
same,half-life at 2 µM,[7],237 min
same,"remaining at 1 h, 2 µM",[8],87.6%
same,half-life at 2 µM,[9],560 min
same,microsomal CLint at 2 µM,[10],2.48 µL/min/mg
CCCSc1nc2c(c(=O)[nH]1)[C@H](c1ccc(OC)cc1[N+](=O)[O-])CC(=O)N2,IC50 at 48 h,[1],> 64 µg/mL
same,Activity,[13],inactive
same,MIC,[2],7.72 µg/mL
same,IC50 at 48 h,[3],56.2 µg/mL
CCCSc1nc2c(c(=O)[nH]1)[C@@H](c1ccc(OC)cc1[N+](=O)[O-])CC(=O)N2,AUC(0-t) at 24 h,[14],131 µg·h/mL
same,bioavailability,[15],63.8%
same,half-life,[16],477 min
same,Activity,[17],1 10^2CFU
same,Tmax,[18],25 min
same,Activity,[19],80 CFU
same,C0 at 24 h,[20],32300 ng/mL
same,"remaining at 1 h, 2 µM",[5],83.3%
same,Stability,[21],Stable
same,Activity,[11],2.5 10^3CFU
same,AUC(0-inf),[22],669 µg·h/mL
same,IC50 at 48 h,[1],> 64 µg/mL
same,%AUCextra,[23],11.2%
same,AUC(0-t) at 24 h,[24],595 µg·h/mL
same,MRT inf,[25],10.1 h
same,Activity,[13],Active
same,MRT inf,[26],16.4 h
same,Cmax,[27],54000 ng/mL
same,half-life,[28],786 min
same,AUClast/dose,[29],19820 kg·ng·h/mL/mg
same,Activity,[30],1.6 10^4CFU
same,microsomal CLint at 2 µM,[6],6.47 µL/min/mg
same,AUC(0-inf),[31],175 µg·h/mL
same,MIC,[2],3 µg/mL
same,AUClast/dose,[32],26110 kg·ng·h/mL/mg
same,Activity,[33],<10 CFU
same,clearance,[34],0.5 mL/min/kg
same,IC50 at 48 h,[3],41.1 µg/mL
same,half-life at 2 µM,[7],214 min
same,pIC50,[35],< 4.52
same,Vd,[36],0.488 L/kg
same,"remaining at 1 h, 2 µM",[8],86.2%
same,Activity,[37],Active
same,half-life at 2 µM,[9],343 min
same,microsomal CLint at 2 µM,[10],4.04 µL/min/mg
same,%AUCextra,[38],25.2%
CCCSc1nc2c(c(=O)[nH]1)[C@@H](c1ccc(OC)cc1)CC(=O)N2,AUC(0-t) at 24 h,[14],116 µg·h/mL
same,bioavailability,[15],56.7%
same,half-life,[16],308 min
same,Activity,[17],2 10^2CFU
same,Tmax,[18],30 min
same,Activity,[19],<80 CFU
same,C0 at 24 h,[20],45400 ng/mL
same,"remaining at 1 h, 2 µM",[5],69.8%
same,Activity,[11],8 10^3CFU
same,AUC(0-inf),[22],424 µg·h/mL
same,IC50 at 48 h,[1],> 64 µg/mL
same,%AUCextra,[23],3.35%
same,AUC(0-t) at 24 h,[24],410 µg·h/mL
same,MRT inf,[25],6.85 h
same,MRT inf,[26],7.8 h
same,Cmax,[27],43300 ng/mL
same,half-life,[28],421 min
same,AUClast/dose,[29],13676 kg·ng·h/mL/mg
same,Activity,[30],1.9 10^5CFU
same,microsomal CLint at 2 µM,[6],11.5 µL/min/mg
same,AUC(0-inf),[31],125 µg·h/mL
same,MIC,[2],0.06 µg/mL
same,AUClast/dose,[32],23295 kg·ng·h/mL/mg
same,Activity,[33],<80 CFU
same,clearance,[34],0.673 mL/min/kg
same,IC50 at 48 h,[3],32.5 µg/mL
same,half-life at 2 µM,[7],120 min
same,pIC50,[35],4.61
same,Vd,[36],0.312 L/kg
same,"remaining at 1 h, 2 µM",[8],88.5%
same,Activity,[37],Active
same,half-life at 2 µM,[9],370 min
same,microsomal CLint at 2 µM,[10],3.75 µL/min/mg
same,%AUCextra,[38],6.41%
C=CCSc1nc2c(c(=O)[nH]1)C(c1ccc(OC)cc1O)CC(=O)N2 (stereo not given),selectivity ratio,[4],> 101
same,IC50 at 48 h,[1],> 100 µg/mL
same,MIC,[2],0.99 µg/mL
